From the supplement of paper PMC4862054

Experiments:
Conditions in all cases: incubation time: 72 h
MFM-223 [1] = test: normalised response (% of control), CellTox Green; higher = less cell death (100 = DMSO, 0 = benzethonium chloride kill control)
How it was run: (§1)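 Every value is a normalised signal taken at one concentration of a dilution series. Compound was placed in 384-well plates at 5 concentrations in 10-fold steps over a compound-specific 10,000-fold range, and 20 µl of breast cancer cell suspension was seeded onto it. After 72 h, CellTox Green fluorescence (485/520 nm) was measured first and CellTiter-Glo luminescence second, following 10 min at room temperature. Each plate was scaled to 0.1 % DMSO (100) and a positive kill control (0).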

MDA-MB-436 [2] = test: as above
How it was run: as §1

MCF-10A [3] = test: as above
How it was run: as §1

CAL-148 [4] = test: as above
How it was run: as §1

HCC1599 [5] = test: as above
How it was run: as §1

CAL-51 [6] = test: as above
How it was run: as §1

BT-549 [7] = test: as above
How it was run: as §1

DU-4475 [8] = test: as above
How it was run: as §1

CAL-85-1 [9] = test: as above
How it was run: as §1

MDA-MB-453 [10] = test: as above
How it was run: as §1

CAL-120 [11] = test: as above
How it was run: as §1

HCC1937 [12] = test: as above
How it was run: as §1

MDA-MB-468 [13] = test: as above
How it was run: as §1

BT-474 [14] = test: as above
How it was run: as §1

HCC1143 [15] = test: as above
How it was run: as §1

MDA-MB-231 [16] = test: as above
How it was run: as §1

HDQ-P1 [17] = test: as above
How it was run: as §1

MFM-223 [18] = test: normalised response (% of control), CellTiter-Glo; higher = more viable cells (100 = DMSO, 0 = benzethonium chloride kill control)
Description: (§2)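 DSRT, 72 h incubation, CellTox Green / CellTiter-Glo readout. Signal is normalised to DMSO and benzethonium chloride controls. Value is the normalised response at the highest dose.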

MDA-MB-436 [19] = test: as above
Description: as §2

MCF-10A [20] = test: as above
Description: as §2

CAL-148 [21] = test: as above
Description: as §2

HCC1599 [22] = test: as above
Description: as §2

CAL-51 [23] = test: as above
Description: as §2

BT-549 [24] = test: as above
Description: as §2

DU-4475 [25] = test: as above
Description: as §2

Hs578T [26] = test: as above
Description: as §2

CAL-85-1 [27] = test: as above
Description: as §2

MDA-MB-453 [28] = test: as above
Description: as §2

CAL-120 [29] = test: as above
Description: as §2

HCC1937 [30] = test: as above
Description: as §2

SK-BR-3 [31] = test: as above
Description: as §2

MDA-MB-468 [32] = test: as above
Description: as §2

BT-474 [33] = test: as above
Description: as §2

HCC1143 [34] = test: as above
Description: as §2

MDA-MB-231 [35] = test: as above
Description: as §2

HDQ-P1 [36] = test: as above
Description: as §2

Hs578T [37] = test: normalised response (% of control), CellTox Green; higher = less cell death (100 = DMSO, 0 = benzethonium chloride kill control)
How it was run: as §1

MDA-MB-436 [38] = test: normalised response (% of control), CellTiter-Glo; higher = more viable cells (100 = DMSO, 0 = benzethonium chloride kill control); remark: listed apart in the source
Description: (§3)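 DSRT, 72 h incubation, CellTox Green / CellTiter-Glo readout. Signal is normalised to DMSO and benzethonium chloride controls. Value is the normalised response at dose 3.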

MCF-10A [39] = test: as above; remark: listed apart in the source
Description: as §3

CAL-148 [40] = test: as above; remark: listed apart in the source
Description: as §3

HCC1599 [41] = test: as above; remark: listed apart in the source
Description: as §3

BT-549 [42] = test: as above; remark: listed apart in the source
Description: as §3

DU-4475 [43] = test: as above; remark: listed apart in the source
Description: as §3

CAL-85-1 [44] = test: as above; remark: listed apart in the source
Description: as §3

MDA-MB-453 [45] = test: as above; remark: listed apart in the source
Description: as §3

CAL-120 [46] = test: as above; remark: listed apart in the source
Description: as §3

HCC1937 [47] = test: as above; remark: listed apart in the source
Description: as §3

SK-BR-3 [48] = test: as above; remark: listed apart in the source
Description: as §3

BT-474 [49] = test: as above; remark: listed apart in the source
Description: as §3

HCC1143 [50] = test: as above; remark: listed apart in the source
Description: as §3

MDA-MB-231 [51] = test: as above; remark: listed apart in the source
Description: as §3

HDQ-P1 [52] = test: as above; remark: listed apart in the source
Description: as §3

Compound	normalised response (MFM-223 [1])	normalised response (MDA-MB-436 [2])	normalised response (MCF-10A [3])	normalised response (CAL-148 [4])	normalised response (HCC1599 [5])	normalised response (CAL-51 [6])	normalised response (BT-549 [7])	normalised response (DU-4475 [8])	normalised response (CAL-85-1 [9])	normalised response (MDA-MB-453 [10])	normalised response (CAL-120 [11])	normalised response (HCC1937 [12])	normalised response (MDA-MB-468 [13])	normalised response (BT-474 [14])	normalised response (HCC1143 [15])	normalised response (MDA-MB-231 [16])	normalised response (HDQ-P1 [17])	normalised response (MFM-223 [18])	normalised response (MDA-MB-436 [19])	normalised response (MCF-10A [20])	further results
CC/C(=C(\c1ccc(O)cc1)c1ccc(OCCN(C)C)cc1)c1ccccc1 [4-hydroxytamoxifen] (10000 nM)	91.1%	74.7%	75.6%	73.9%	82.9%	103%	68%	92%	34%	46.9%	44.5%	-22.6%	-1140%	14.6%	68%	7.14%	81.4%	45.5%	35%	81.4%	normalised response (CAL-148 [21]): 85%; normalised response (HCC1599 [22]): 66.5%; normalised response (CAL-51 [23]): 60.5%; normalised response (BT-549 [24]): 62.7%; normalised response (DU-4475 [25]): 84%; normalised response (Hs578T [26]): 80.8%; normalised response (CAL-85-1 [27]): 44.9%; normalised response (MDA-MB-453 [28]): 34.4%; normalised response (CAL-120 [29]): 76.5%; normalised response (HCC1937 [30]): 25.4%; normalised response (SK-BR-3 [31]): 49.8%; normalised response (MDA-MB-468 [32]): 13.8%; normalised response (BT-474 [33]): 63%; normalised response (HCC1143 [34]): 88.6%; normalised response (MDA-MB-231 [35]): 41.1%; normalised response (HDQ-P1 [36]): 73.1%
O=S(=O)(c1cccc2cnccc12)N1CCCNCC1 [Fasudil] (50000 nM)	102%	94.4%	87.7%	97.8%	80.3%	116%	97.4%	95.4%	80.6%	101%	93.2%	79.6%	90.6%	99.3%	99.4%	50.6%	–	88.2%	90.2%	78.3%	normalised response (Hs578T [37]): 118%; normalised response (CAL-148 [21]): 96.3%; normalised response (HCC1599 [22]): 96.6%; normalised response (CAL-51 [23]): 117%; normalised response (BT-549 [24]): 78.9%; normalised response (DU-4475 [25]): 86.3%; normalised response (Hs578T [26]): 86.7%; normalised response (CAL-85-1 [27]): 111%; normalised response (MDA-MB-453 [28]): 79.6%; normalised response (CAL-120 [29]): 67.1%; normalised response (HCC1937 [30]): 96.5%; normalised response (SK-BR-3 [31]): 57%; normalised response (MDA-MB-468 [32]): 93.6%; normalised response (BT-474 [33]): 67.5%; normalised response (HCC1143 [34]): 83.7%; normalised response (MDA-MB-231 [35]): 70.1%; normalised response (HDQ-P1 [36]): 89%
Cc1cccc(-c2nn3c(c2-c2ccnc4ccc(C(N)=O)cc24)CCC3)n1 [Galunisertib] (1000 nM)	102%	–	103%	105%	112%	98.5%	109%	108%	68.4%	98.8%	99.3%	116%	121%	103%	127%	127%	108%	108%	112%	90.8%	normalised response (Hs578T [37]): 112%; normalised response (CAL-148 [21]): 118%; normalised response (HCC1599 [22]): 108%; normalised response (CAL-51 [23]): 91.8%; normalised response (BT-549 [24]): 95.7%; normalised response (DU-4475 [25]): 108%; normalised response (Hs578T [26]): 106%; normalised response (CAL-85-1 [27]): 110%; normalised response (MDA-MB-453 [28]): 106%; normalised response (CAL-120 [29]): 105%; normalised response (HCC1937 [30]): 101%; normalised response (SK-BR-3 [31]): 116%; normalised response (MDA-MB-468 [32]): 101%; normalised response (BT-474 [33]): 99.6%; normalised response (HCC1143 [34]): 105%; normalised response (MDA-MB-231 [35]): 98.3%; normalised response (HDQ-P1 [36]): 105%
CS(=O)(=O)N1CCN(Cc2cc3nc(-c4cccc5[nH]ncc45)nc(N4CCOCC4)c3s2)CC1 [Pictilisib] (100 nM)	105%	107%	106%	92.1%	108%	103%	101%	101%	107%	104%	102%	–	143%	98.8%	110%	92.3%	107%	–	–	–	normalised response (MDA-MB-436 [38]): 92%; normalised response (MCF-10A [39]): 84.8%; normalised response (CAL-148 [40]): 98.4%; normalised response (HCC1599 [41]): 93.6%; normalised response (BT-549 [42]): 86.7%; normalised response (DU-4475 [43]): 92%; normalised response (CAL-85-1 [44]): 106%; normalised response (MDA-MB-453 [45]): 88.5%; normalised response (CAL-120 [46]): 89.6%; normalised response (HCC1937 [47]): 94.7%; normalised response (SK-BR-3 [48]): 74.1%; normalised response (BT-474 [49]): 86.9%; normalised response (HCC1143 [50]): 91.7%; normalised response (MDA-MB-231 [51]): 86.2%; normalised response (HDQ-P1 [52]): 82.4%; normalised response (Hs578T [37]): 109%
CC(C)N(CCCNC(=O)Nc1ccc(C(C)(C)C)cc1)C[C@H]1O[C@@H](n2cc(Br)c3c(N)ncnc32)[C@H](O)[C@@H]1O [SGC0946] (10000 nM)	89.3%	75%	79.5%	93.7%	81.6%	101%	95.8%	98.7%	114%	91.9%	97.4%	94%	115%	85.2%	100%	71.9%	99.1%	81.2%	93.8%	101%	normalised response (CAL-148 [21]): 82.6%; normalised response (HCC1599 [22]): 78%; normalised response (CAL-51 [23]): 94.1%; normalised response (BT-549 [24]): 92.3%; normalised response (DU-4475 [25]): 94.3%; normalised response (Hs578T [26]): 101%; normalised response (CAL-85-1 [27]): 83.1%; normalised response (MDA-MB-453 [28]): 69.3%; normalised response (CAL-120 [29]): 102%; normalised response (HCC1937 [30]): 84.2%; normalised response (SK-BR-3 [31]): 73.5%; normalised response (MDA-MB-468 [32]): 70.7%; normalised response (BT-474 [33]): 88.1%; normalised response (HCC1143 [34]): 91.4%; normalised response (MDA-MB-231 [35]): 74.7%; normalised response (HDQ-P1 [36]): 87.2%
